# From ChEMBL document CHEMBL1671662, “In vitro activities of telavancin and six comparator agents against anaerobic bacterial isolates” (2009)
# Key:
# Prevotella corporis = assay: Antibacterial activity against Prevotella corporis by CLSI M11-A6 agar dilution method; format: functional
# Clostridium sp. = assay: Antibacterial activity against Clostridium sp. by CLSI M11-A6 agar dilution method; format: functional
# Bifidobacterium bifidum = assay: Antibacterial activity against Bifidobacterium bifidum by CLSI M11-A6 agar dilution method; format: functional
# [1] = tested on: Prevotella melaninogenica; assay: Antibacterial activity against Prevotella melaninogenica by CLSI M11-A6 agar dilution method; format: functional
# Eggerthella lenta = assay: Antibacterial activity against Eggerthella lenta by CLSI M11-A6 agar dilution method; format: functional
# Prevotella nigrescens = assay: Antibacterial activity against Prevotella nigrescens by CLSI M11-A6 agar dilution method; format: functional
# Bacteroides ovatus = assay: Antibacterial activity against Bacteroides ovatus by CLSI M11-A6 agar dilution method; format: functional
# [Clostridium] innocuum = Antibacterial activity against Clostridium innocuum by CLSI M11-A6 agar dilution method; format: functional
# Bilophila wadsworthia = assay: Antibacterial activity against Bilophila wadsworthia by CLSI M11-A6 agar dilution method; format: functional
# Blautia producta = assay: Antibacterial activity against Ruminococcus productus by CLSI M11-A6 agar dilution method; format: functional
# Ruminococcus sp. = assay: Antibacterial activity against Ruminococcus sp. by CLSI M11-A6 agar dilution method; format: functional
# Hoylesella oralis = assay: Antibacterial activity against Prevotella oralis by CLSI M11-A6 agar dilution method; format: functional
# [2] = tested on: Paeniclostridium sordellii; assay: Antibacterial activity against Clostridium sordellii by CLSI M11-A6 agar dilution method; format: functional; details: Paraclostridium sordellii
# Clostridium subterminale = assay: Antibacterial activity against Clostridium subterminale by CLSI M11-A6 agar dilution method; format: functional
# Collinsella aerofaciens = assay: Antibacterial activity against Colinsella aerofaciens by CLSI M11-A6 agar dilution method; format: functional
# Fusobacterium varium = assay: Antibacterial activity against Fusobacterium varium by CLSI M11-A6 agar dilution method; format: functional
# Bifidobacterium dentium = assay: Antibacterial activity against Bifidobacterium dentium by CLSI M11-A6 agar dilution method; format: functional
# [3] = Antibacterial activity against Bifidobacterium infantis by CLSI M11-A6 agar dilution method; format: functional, Bifidobacterium longum subsp. infantis; details: Bifidobacterium longum
# Clostridium perfringens = assay: Antibacterial activity against Clostridium perfringens by CLSI M11-A6 agar dilution method; format: functional
# [4] = tested on: Clostridium celerecrescens; assay: Antibacterial activity against Clostridium celerecrescens by CLSI M11-A6 agar dilution method; format: functional; details: Lacrimispora celerecrescens
# Fusobacterium mortiferum = assay: Antibacterial activity against Fusobacterium mortiferum by CLSI M11-A6 agar dilution method; format: functional
# Anaerococcus prevotii = assay: Antibacterial activity against Anaerococcus prevotii by CLSI M11-A6 agar dilution method; format: functional
# Clostridium sporogenes = assay: Antibacterial activity against Clostridium sporogenes by CLSI M11-A6 agar dilution method; format: functional
# Clostridium beijerinckii = assay: Antibacterial activity against Clostridium beijerinckii by CLSI M11-A6 agar dilution method; format: functional
# Clostridium scindens = assay: Antibacterial activity against Clostridium scindens by CLSI M11-A6 agar dilution method; format: functional
# [5] = tested on: Bacteroides thetaiotaomicron; assay: Antibacterial activity against Bacteroides thetaiotaomicron by CLSI M11-A6 agar dilution method; format: functional
# Blautia luti = assay: Antibacterial activity against Ruminococcus luti by CLSI M11-A6 agar dilution method; format: functional
# Thomasclavelia ramosa = assay: Antibacterial activity against Clostridium ramosum by CLSI M11-A6 agar dilution method; format: functional
# Clostridium leptum = assay: Antibacterial activity against Clostridium leptum by CLSI M11-A6 agar dilution method; format: functional
# Clostridioides difficile = assay: Antibacterial activity against Clostridium difficile by CLSI M11-A6 agar dilution method; format: functional
# Clostridium spiroforme = assay: Antibacterial activity against Clostridium spiroforme by CLSI M11-A6 agar dilution method; format: functional; details: Thomasclavelia spiroformis
# Flavonifractor plautii = assay: Antibacterial activity against Clostridium orbiscindens by CLSI M11-A6 agar dilution method; format: functional
# Clostridium = assay: Antibacterial activity against Clostridium hypermegas by CLSI M11-A6 agar dilution method; format: functional
# Prevotella intermedia = assay: Antibacterial activity against Prevotella P intermedia by CLSI M11-A6 agar dilution method; format: functional
# Streptococcus anginosus = assay: Antibacterial activity against Streptococcus anginosus by CLSI M11-A6 agar dilution method; format: functional
# Hoylesella loescheii = assay: Antibacterial activity against Prevotella loescheii by CLSI M11-A6 agar dilution method; format: functional
# Clostridium butyricum = assay: Antibacterial activity against Clostridium butyricum by CLSI M11-A6 agar dilution method; format: functional
# Ruminococcus obeum = assay: Antibacterial activity against Ruminococcus obeum by CLSI M11-A6 agar dilution method; format: functional; details: Blautia obeum
# Holdemania filiformis = assay: Antibacterial activity against Holdemania filiformis by CLSI M11-A6 agar dilution method; format: functional
smiles,measurement,setting,value
CN[C@H](CC(C)C)C(=O)N[C@H]1C(=O)N[C@@H](CC(N)=O)C(=O)N[C@H]2C(=O)N[C@H]3C(=O)N[C@H](C(=O)N[C@H](C(=O)O)c4cc(O)cc(O)c4-c4cc3ccc4O)[C@H](O)c3ccc(c(Cl)c3)Oc3cc2cc(c3O[C@@H]2O[C@H](CO)[C@@H](O)[C@H](O)[C@H]2O[C@H]2C[C@](C)(N)[C@H](O)[C@H](C)O2)Oc2ccc(cc2Cl)[C@H]1O [VANCOMYCIN],MIC50,Prevotella corporis,32 µg/mL
same,MIC90,Prevotella corporis,> 128 µg/mL
same,MIC50,Clostridium sp.,1 µg/mL
same,MIC90,Clostridium sp.,4 µg/mL
same,MIC50,Bifidobacterium bifidum,0.5 µg/mL
same,MIC90,Bifidobacterium bifidum,4 µg/mL
same,MIC50,[1],32 µg/mL
same,MIC90,[1],> 128 µg/mL
same,MIC50,Eggerthella lenta,0.5 µg/mL
same,MIC90,Eggerthella lenta,4 µg/mL
same,MIC50,Prevotella nigrescens,32 µg/mL
same,MIC90,Prevotella nigrescens,> 128 µg/mL
same,MIC50,Bacteroides ovatus,128 µg/mL
same,MIC90,Bacteroides ovatus,128 µg/mL
same,MIC,[Clostridium] innocuum,16 µg/mL
same,MIC50,[Clostridium] innocuum,16 µg/mL
same,MIC90,[Clostridium] innocuum,16 µg/mL
same,MIC,Bilophila wadsworthia,> 128 µg/mL
same,MIC50,Bilophila wadsworthia,> 128 µg/mL
same,MIC90,Bilophila wadsworthia,> 128 µg/mL
same,MIC50,Blautia producta,0.5 µg/mL
same,MIC90,Blautia producta,1 µg/mL
same,MIC50,Ruminococcus sp.,0.5 µg/mL
same,MIC90,Ruminococcus sp.,1 µg/mL
same,MIC50,Hoylesella oralis,32 µg/mL
same,MIC90,Hoylesella oralis,> 128 µg/mL
same,MIC50,[2],1 µg/mL
same,MIC90,[2],4 µg/mL
same,MIC,Clostridium subterminale,0.5 µg/mL
same,MIC50,Clostridium subterminale,0.5 µg/mL
same,MIC90,Clostridium subterminale,1 µg/mL
same,MIC50,Collinsella aerofaciens,0.5 µg/mL
same,MIC90,Collinsella aerofaciens,4 µg/mL
same,MIC,Fusobacterium varium,> 128 µg/mL
same,MIC50,Fusobacterium varium,> 128 µg/mL
same,MIC90,Fusobacterium varium,> 128 µg/mL
same,MIC50,Bifidobacterium dentium,0.5 µg/mL
same,MIC90,Bifidobacterium dentium,4 µg/mL
same,MIC50,[3],0.5 µg/mL
same,MIC90,[3],4 µg/mL
same,MIC,Clostridium perfringens,0.5 µg/mL
same,MIC50,Clostridium perfringens,0.5 µg/mL
same,MIC90,Clostridium perfringens,1 µg/mL
same,MIC50,[4],1 µg/mL
same,MIC90,[4],4 µg/mL
same,MIC,Fusobacterium mortiferum,> 128 µg/mL
same,MIC50,Fusobacterium mortiferum,> 128 µg/mL
same,MIC90,Fusobacterium mortiferum,> 128 µg/mL
same,MIC50,Anaerococcus prevotii,0.5 µg/mL
same,MIC90,Anaerococcus prevotii,1 µg/mL
same,MIC50,Clostridium sporogenes,1 µg/mL
same,MIC90,Clostridium sporogenes,4 µg/mL
same,MIC50,Clostridium beijerinckii,1 µg/mL
same,MIC90,Clostridium beijerinckii,4 µg/mL
same,MIC50,Clostridium scindens,1 µg/mL
same,MIC90,Clostridium scindens,4 µg/mL
same,MIC50,[5],> 128 µg/mL
same,MIC90,[5],> 128 µg/mL
same,MIC50,Blautia luti,0.5 µg/mL
same,MIC90,Blautia luti,1 µg/mL
same,MIC50,Thomasclavelia ramosa,8 µg/mL
same,MIC90,Thomasclavelia ramosa,8 µg/mL
same,MIC50,Clostridium leptum,1 µg/mL
same,MIC90,Clostridium leptum,4 µg/mL
same,MIC50,Clostridioides difficile,1 µg/mL
same,MIC90,Clostridioides difficile,2 µg/mL
same,MIC50,Clostridium spiroforme,1 µg/mL
same,MIC90,Clostridium spiroforme,4 µg/mL
same,MIC50,Flavonifractor plautii,1 µg/mL
same,MIC90,Flavonifractor plautii,4 µg/mL
same,MIC50,Clostridium,1 µg/mL
same,MIC90,Clostridium,4 µg/mL
same,MIC50,Prevotella intermedia,32 µg/mL
same,MIC90,Prevotella intermedia,> 128 µg/mL
same,MIC50,Streptococcus anginosus,2 µg/mL
same,MIC90,Streptococcus anginosus,2 µg/mL
same,MIC50,Hoylesella loescheii,32 µg/mL
same,MIC90,Hoylesella loescheii,> 128 µg/mL
same,MIC50,Clostridium butyricum,1 µg/mL
same,MIC90,Clostridium butyricum,4 µg/mL
same,MIC50,Ruminococcus obeum,0.5 µg/mL
same,MIC90,Ruminococcus obeum,0.5 µg/mL
same,MIC50,Holdemania filiformis,0.5 µg/mL
same,MIC90,Holdemania filiformis,4 µg/mL
CCC[C@@H]1C[C@@H](C(=O)N[C@@H]([C@H]2O[C@H](SC)[C@H](O)[C@@H](O)[C@H]2O)[C@H](C)Cl)N(C)C1 [CLINDAMYCIN],MIC,Prevotella corporis,≤ 0.12 µg/mL
same,MIC50,Prevotella corporis,≤ 0.12 µg/mL
same,MIC90,Prevotella corporis,≤ 0.12 µg/mL
same,MIC90,Clostridium sp.,4 µg/mL
same,MIC50,Bifidobacterium bifidum,≤ 0.12 µg/mL
same,MIC90,Bifidobacterium bifidum,1 µg/mL
same,MIC,[1],≤ 0.12 µg/mL
same,MIC50,[1],≤ 0.12 µg/mL
same,MIC90,[1],≤ 0.12 µg/mL
same,MIC50,Eggerthella lenta,≤ 0.12 µg/mL
same,MIC90,Eggerthella lenta,1 µg/mL
same,MIC,Prevotella nigrescens,≤ 0.12 µg/mL
same,MIC50,Prevotella nigrescens,≤ 0.12 µg/mL
same,MIC90,Prevotella nigrescens,≤ 0.12 µg/mL
same,MIC50,Bacteroides ovatus,2 µg/mL
same,MIC90,Bacteroides ovatus,> 128 µg/mL
same,MIC50,[Clostridium] innocuum,1 µg/mL
same,MIC90,[Clostridium] innocuum,> 128 µg/mL
same,MIC50,Bilophila wadsworthia,0.5 µg/mL
same,MIC90,Bilophila wadsworthia,1 µg/mL
same,MIC50,Blautia producta,≤ 0.12 µg/mL
same,MIC90,Blautia producta,2 µg/mL
same,MIC90,Ruminococcus sp.,> 128 µg/mL
same,MIC,Hoylesella oralis,≤ 0.12 µg/mL
same,MIC50,Hoylesella oralis,≤ 0.12 µg/mL
same,MIC90,Hoylesella oralis,≤ 0.12 µg/mL
same,MIC90,[2],4 µg/mL
same,MIC50,Clostridium subterminale,0.5 µg/mL
same,MIC90,Clostridium subterminale,8 µg/mL
same,MIC50,Collinsella aerofaciens,≤ 0.12 µg/mL
same,MIC90,Collinsella aerofaciens,1 µg/mL
same,MIC50,Fusobacterium varium,1 µg/mL
same,MIC90,Fusobacterium varium,32 µg/mL
same,MIC50,Bifidobacterium dentium,≤ 0.12 µg/mL
same,MIC90,Bifidobacterium dentium,1 µg/mL
same,MIC50,[3],≤ 0.12 µg/mL
same,MIC90,[3],1 µg/mL
same,MIC50,Clostridium perfringens,0.5 µg/mL
same,MIC90,Clostridium perfringens,2 µg/mL
same,MIC90,[4],4 µg/mL
same,MIC50,Fusobacterium mortiferum,1 µg/mL
same,MIC90,Fusobacterium mortiferum,32 µg/mL
same,MIC90,Anaerococcus prevotii,> 128 µg/mL
same,MIC90,Clostridium sporogenes,4 µg/mL
same,MIC90,Clostridium beijerinckii,4 µg/mL
same,MIC90,Clostridium scindens,4 µg/mL
same,MIC50,[5],4 µg/mL
same,MIC90,[5],> 128 µg/mL
same,MIC50,Blautia luti,≤ 0.12 µg/mL
same,MIC90,Blautia luti,2 µg/mL
same,MIC50,Thomasclavelia ramosa,4 µg/mL
same,MIC90,Thomasclavelia ramosa,8 µg/mL
same,MIC90,Clostridium leptum,4 µg/mL
same,MIC50,Clostridioides difficile,4 µg/mL
same,MIC90,Clostridioides difficile,128 µg/mL
same,MIC90,Clostridium spiroforme,4 µg/mL
same,MIC90,Flavonifractor plautii,4 µg/mL
same,MIC,Prevotella intermedia,≤ 0.12 µg/mL
same,MIC50,Prevotella intermedia,≤ 0.12 µg/mL
same,MIC90,Prevotella intermedia,≤ 0.12 µg/mL
same,MIC90,Streptococcus anginosus,0.5 µg/mL
same,MIC,Hoylesella loescheii,≤ 0.12 µg/mL
same,MIC50,Hoylesella loescheii,≤ 0.12 µg/mL
same,MIC90,Hoylesella loescheii,≤ 0.12 µg/mL
same,MIC90,Clostridium butyricum,4 µg/mL
same,MIC50,Ruminococcus obeum,≤ 0.12 µg/mL
same,MIC90,Ruminococcus obeum,≤ 0.12 µg/mL
same,MIC50,Holdemania filiformis,≤ 0.12 µg/mL
same,MIC90,Holdemania filiformis,1 µg/mL
